Results reported in patent US11994512B2, “Single-cell genomic methods to generate ex vivo cell systems that recapitulate in vivo biology with improved fidelity” (Massachusetts Institute of Technology, priority 2018, dated 2024).

Legend:
Format in all cases: cell-based, C57BL/6 mice
[1] = system: LYZ secretion by Paneth cells in organoid culture; assay: Lysozyme functional secretion assay (EnzChek), basal and CCh-stimulated
From the text: In addition to the morphological, proteomic, and transcriptional characterization of PC phenotype in ENR+CD and ENR, Applicants sought to measure physiological function by assessing stimulant-induced secretion of antimicrobials. Applicants assessed the dynamics of LYZ accumulation in media supernatant of cultures following media wash, basally and after stimulation with carbachol (CCh), a cholinergic agonist known to induce PC secretion. […] The observed PC secretion in response to CCh is consistent with observations made in ex vivo crypts, though over appreciably longer time scales, likely due to the added diffusion barrier of the organoid structure and matrigel. Applicants next identified how LYZ secretion changes over the course of differentiation. Beginning with an ISC-enriched population, Applicants assayed for secreted LYZ in cell culture supernatants every two days for six days of ENR+CD culture, following a 24-hour stimulation with CCh or without (basal collection/non-stimulated).
Lysozyme functional secretion assay. Lysozyme secretion was measured using a Lysozyme Assay Kit (EnzChek; Thermo Fisher). Briefly, cells suspended in Matrigel in 24-well plates were washed (basal culture media 3X) and either supplemented with 500 μL of basal culture media or basal culture media plus 10 μM Carbachol (CCh, Sigma Aldrich) for 24 hours at 37° C. Following stimulation, culture plates were spun at high speed (>2000 g) for 5 min at RT to pellet cell debris and loose Matrigel. 25 μL of conditioned supernatant was removed from the top of each well and quantified per manufacturer's protocol.

[2] = system: organoid single cells (clusters ENR, ENR+CV, ENR+CD); assay: Seq-Well single-cell RNA-sequencing and transcriptional scoring of ENR+CV, ENR and ENR+CD organoids; conditions: p<2.2×10^−16
From the text: Applicants performed scRNA-seq using the Seq-Well platform on cells from ENR+CD and the precursor ENR+CV conditions to analyze alongside conventional ENR organoids. To ensure experimental robustness, Applicants assessed quality metrics for number of genes, unique molecular identifiers (UMIs), mitochondrial genes, and ribosomal genes by cluster, all of which fell within expectation (FIG. 11).
To assess sub-population structure and provide a more robust measure of composition beyond canonical marker genes, Applicants performed unsupervised KNN graph-based clustering on the captured cells (FIG. 4C,D and Table 1 for full gene lists), distinguishing four clusters in each treatment condition. Applicants then scored individual clusters according to the amount of the transcriptome within each cell dedicated to synthesizing the respective enriched proteins from the bulk proteome data.
To confirm and extend the findings of pathway-based modulation, Applicants scored clusters for enrichment or depletion of canonical growth factor-induced pathways.

[3] = system: in vitro PCs (CD24+ & LYZ+) in ENR+CD culture; NUPR1; assay: Trifluoperazine (NUPR1 inhibition) treatment of ENR+CD cultures, flow cytometry of viability and CD24/LYZ populations
From the text: Lastly, Applicants sought to use this physiologically-improved in vitro PC system (ENR+CD) to identify novel factors potentially supportive of PC survival or differentiation. […] Intriguingly, Nupr1 is a stress-response gene, known to promote cellular survival and senescence through mediation of autophagy, and has primarily been studied in the context of cancer. Autophagy and stress response have repeatedly been implicated through GWAS study in PCs in IBD, however Nupr1 has only ever been reported in a single IBD GWAS study, and its role in PC biology has not been formally investigated. With the model, Applicants sought to test the role of NUPR1 on in vitro PC survival, through the small molecule inhibition of NUPR1 with trifluoperazine (TFP).
Flow cytometry. Cell clusters were isolated from Matrigel as previously described and resuspended in TrypLE Express at 37° C. for 20 mins to dissociate into single cells. Dissociated cells were centrifuged at 300 g for 3 mins at 4° C. The pellet was resuspended in FACS buffer (1% FBS in PBS, Thermo Fisher Scientific) and strained into a 5-mL filter cap tube using a 40 μm filter. The cell suspension was transferred to a flow prep microcentrifuge tube and centrifuged at 300 rcf for 3 min. Cell pellets were resuspended in a Zombie violet dye (BioLegend 100X) in FACS buffer for viability staining followed with 1% PFA fixation for 20 minutes at RT. Pellets were permeabilized for 20 minutes at RT with staining buffer (0.5% Tween-20 in FACS buffer, Sigma), and co-stained with rabbit anti-human FITC-Lyz (100X) and rat anti-mouse APC-CD24 (100X) antibodies diluted in staining buffer for 45 min at RT. Flow cytometry was performed using a BD LSR II HTS (BD; Koch Institute Flow Cytometry Core at MIT). Initial settings and laser voltages were determined with unstained, single channel stains or secondary-only controls (data not shown). Flow cytometry data was analyzed using FlowJo v10.7 software.

[4] = system: intracellular proteome of ENR+CD and ENR organoids; assay: LC-MS/MS TMT proteomics of ENR+CD versus ENR organoids; conditions: for Average logFC: ENR+CD versus ENR organoids, sample pairs in aggregate (n=4, 2 technical replicates from two biological donors); for M1-1 Log2 Median Normalized / M1-2 Log2 Median Normalized / M2-1 Log2 Median Normalized / M2-2 Log2 Median Normalized: protein abundance ratio ENR+CD versus ENR organoids, LC-MS/MS TMT proteomics; for M1-1 Log2 Median Normalized: sample pair M1-1; for M1-2 Log2 Median Normalized: sample pair M1-2; for M2-1 Log2 Median Normalized: sample pair M2-1; for M2-2 Log2 Median Normalized: sample pair M2-2; for change: up = enriched in ENR+CD, down = enriched in ENR, FDR<0.05 and log fold change cut-off
From the text: Because PCs are highly secretory, protein-rich cells, Applicants sought to assess the total intracellular proteome between conditions through liquid chromatography mass spectrometry (LC-MS/MS)-based proteomics. Applicants quantified relative protein abundance across eight samples using isobaric mass tag labeling from four ENR and four ENR+CD samples (M1-1 through M2-2, first digit denotes biological donor, second digit denotes technical replicate) (FIG. 3A). Samples were processed and analyzed in a single 10-plex by LC-MS/MS (FIG. 9A).
To affirm the reproducibility of the associated proteins in the ENR+CD-enriched proteome, Applicants performed relative quantification within differentiation sets.
Mass spectrometry proteomics sample preparation, sequencing, and quantification. Organoid cell pellets were isolated from Matrigel with mechanical dissociation and washed (cold PBS 5X) to remove residual extracellular protein. Proteins were extracted from cell pellets with 8 M urea (Sigma), reduced with 5 mM DTT (Thermo Fisher Pierce) for 45 minutes, alkylated with 10 mM IAA (Sigma) for 45 minutes in the dark, and double digested with both Lysyl Endopeptidase “LysC” (Wako) and trypsin (Promega) overnight at RT. A small aliquot of cellular lysate was removed from each sample for protein quantification via the Pierce™ BCA Protein Assay Kit (Pierce). After proteolytic digestion, the samples were quenched using formic acid to a final concentration of 1.0% and subsequently desalted on 10 mg OASIS HLB solid phase columns (Waters).
The peptides were labeled with TMT-10 isobaric mass tag reagent according to manufacturer's instructions (ThermoFisher Scientific). The peptides were labeled at a 1:8 ratio of peptide to TMT reagent, followed by 1-hour incubation at RT with bench top shaking at 850 rpm. After incubation, a […] of labeled tryptic peptide was removed from each labeled condition, desalted with C18 stage tips, and analyzed via LC-MS/MS using a Thermo Fisher Q Exactive Plus Hybrid Mass Spectrometer (QE-Plus) coupled to a Thermo Fisher EASY-nLC 1000 liquid chromatograph to ensure isobaric label incorporation >95%. An additional 1.0 μg of labeled tryptic peptide was removed from each channel, mixed together, desalted on a C18 stage tip, and analyzed via LC-MS to ensure equal relative protein loads. During these quality control steps, the labeled peptides were stored, unquenched at −80° C.

[5] = doses above luM, in combination with ENR+CD for six days

Row | Compound | Average logFC [4] | M1-1 Log2 Median Normalized [4] | M1-2 Log2 Median Normalized [4] | M2-1 Log2 Median Normalized [4] | M2-2 Log2 Median Normalized [4] | change [4] | further results
1 | C[N+](C)(C)CCOC(N)=O [CCh, carbachol] |  |  |  |  |  |  | plateau of LYZ accumulation in supernatant ([1]; 10 μM, six day ENR+CD culture): plateaued around six hours post-wash; LYZ accumulation in media supernatant after stimulation ([1]; 10 μM, six day ENR+CD culture, post-wash): rapid accumulation of LYZ within two hours; functional LYZ secretion (stimulated relative to basal) over differentiation ([1]; 24-hour stimulation, days four and six of ENR+CD culture): Notable increases in functional secretion
2 | Cc1c[nH]c(-c2cnc(NCCNc3ccc(C#N)cn3)nc2-c2ccc(Cl)cc2Cl)n1 [CHIR, CHIR99021] |  |  |  |  |  |  | Wnt target gene enrichment, effect size ([2]; all ENR+CD clusters vs ENR-4): > 0.999
3 | C[C@H](NC(=O)Cc1cc(F)cc(F)c1)C(=O)N[C@H](C(=O)OC(C)(C)C)c1ccccc1 [DAPT] |  |  |  |  |  |  | Notch target gene depletion, effect size ([2]; ENR+CD-4 vs ENR-4): −0.658
4 | CN1CCN(CCCN2c3ccccc3Sc3ccc(C(F)(F)F)cc32)CC1 [TFP, trifluoperazine] |  |  |  |  |  |  | cellular viability ([3]; added for two days following a six-day course of ENR+CD): profound, but not total, decline in cellular viability; toxicity, preference to PCs (CD24+ & LYZ+) and PC-like populations ([3]; concurrent with 6-day ENR+CD differentiation (FIG. 7C)): dose-dependent toxicity; cell death during differentiation [3, 5]: near total cell death; identity of surviving cells [3, 5]: primarily non-Paneth; selectivity of toxicity between cell populations ([3]; two days following six-day ENR+CD): selectively more toxic to PC and PC-progenitor populations relative to non-PC populations; toxicity, preference to PCs (CD24+ & LYZ+) and PC-like populations ([3]; two-day treatment following 6-day ENR+CD differentiation (FIG. 7D)): dose-dependent toxicity
5 | Q60936 | −1.292 | −1.293 | −1.012 | −1.8255 | −1.133 | down | 
6 | Q60997 | −1.332 | −1.643 | −0.987 | −1.1555 | −1.543 | down | 
